Source: publication PMC3480206 (Future microbiology, 2012)
Converted amounts (≈) assume the structure as drawn. “Also recorded” adds a separate entry of the source. Read-outs that look alike come from different tables or passages of the source.

How the values were obtained:
[1] = Phase Ic, multiple daily 300 mg doses
[2] = system: Mycobacterium tuberculosis H37Rv; settings: cited from earlier work
[3] = Neurological safety assessment, beagle dogs; format: in vivo; settings: 90-day oral dosing at 100, 300 and 1000 mg/m^2/day
Enterococci spp. = experiment: MIC on Enterococci spp.; format: cell-based
[4] = system: Salmonella–Escherichia coli; experiment: Salmonella–Escherichia coli/microsome plate incorporation assay; format: cell-based; settings: In vitro mutagenicity studies
Mtb [5] = settings: 10 mg/kg, cited from earlier work
[6] = system: Helicobacter pylori clinical isolates; experiment: MIC and time-kill on Helicobacter pylori; format: cell-based
Mtb [7] = settings: cited from earlier work
[8] = human, in vivo
[9] = system: Mycobacterium tuberculosis H37Rv; experiment: BACTEC MIC; format: cell-based; settings: ATCC27294|H37RV
[10] = Pulmonary safety testing, beagle dogs; format: in vivo; settings: single oral dosing at 75, 140 and 300 mg/m^2
[11] = IND-directed repeat-dose toxicology studies
[12] = Cardiovascular safety, beagle dogs
Streptococcus pneumoniae = experiment: MIC on Streptococcus pneumoniae; format: cell-based
[13] = in vivo
[14] = system: Mycobacteria bovis, M. bovis BCG and Mycobacteria fortuitum; format: cell-based
Haemophilus influenzae = experiment: MIC on Haemophilus influenzae; format: cell-based
Cryptococcus neoformans = experiment: MIC on Cryptococcus neoformans; format: cell-based
Clostridium difficile = experiment: MIC on Clostridium difficile; format: cell-based; settings: Clostridioides difficile
Mtb [15] = settings: cited from earlier work; remark: listed apart in the source
Mtb [16] = experiment: Broth microdilution MIC against Mtb; format: cell-based, Mycobacterium tuberculosis
[17] = rat, in vivo; cited from earlier work
Mtb [18] = experiment: Rapid, high-dose model of TB infection; format: in vivo, mice; settings: murine model of acute infection
[19] = PK evaluation on coadministration with second-line drugs
[20] = Phase Ia, escalating single dose; settings: for mean maximum concentration: fasting human subjects
[21] = system: Mtb gene clusters GC82 and GC120, iniBAC operon; settings: cited from earlier work
Candida spp. = experiment: MIC on Candida spp.; format: cell-based
[22] = Phase Ib, multiple daily doses; format: in vivo, healthy humans
Neisseria gonorrhoeae = experiment: MIC and MBC on Neisseria gonorrhoeae; format: cell-based
CYP3A4 = settings: cited from earlier work
[23] = mice; cited from earlier work
[24] = Micronucleus assay in rats; settings: rat, in vivo
Aspergillus fumigatus = experiment: MIC on Aspergillus fumigatus; format: cell-based
Mtb inside macrophages [25] = experiment: Intracellular killing in Mtb-infected macrophages; format: cell-based, Mycobacterium tuberculosis; settings: SQ109 with CFZ; Reddy V, Unpublished Data
[26] = Neurological safety assessment, rats; format: in vivo; settings: 90-day oral dosing at 30, 120 and 240 mg/m^2/day
Mtb inside macrophages [27] = settings: cited from earlier work
[28] = system: Mycobacterium tuberculosis H37Rv; experiment: In vitro drug interaction, checkerboard titration by 96-well microdilution; format: cell-based
[29] = rats; cited from earlier work
CYP450 2D6 and 2C19 = settings: cited from earlier work
[30] = system: Mycobacterium tuberculosis H37Rv; settings: mouse, in vivo; cited from earlier work
[31] = In vivo pairwise drug-drug interaction studies with first-line drugs; settings: pairwise studies of SQ109 with INH, RIF or streptomycin in mice or rats
[32] = system: Mycobacteria avium, marinum, chelonae and abscessus; experiment: MIC on other pathogenic Mycobacteria; format: cell-based
[33] = single oral dosing at 75, 140 and 300 mg/m^2
[34] = 300 mg with high-fat, high-calorie meal

CC(C)=CCC/C(C)=C/CNCCNC1C2CC3CC(C2)CC1C3 (stereo not drawn) [SQ109, N-geranyl-N′-(2-adamantyl)ethane-1,2-diamine]
subjects with lung concentrations above the MIC for Mtb ([1]; 12 h after dosing, expected from plasma concentration–time profile): approximately 50% | serious adverse events ([1]; Phase Ic, 300 mg daily for 14 days): no SAEs | time to steady-state conditions ([1]; daily administration of 300 mg): ≤ 10 days | lung concentration relative to SQ109 MIC ([1]; steady state, once-daily 300 mg, from preclinical plasma/lung relationship): approximately 5.8 fold | improvement of SQ109 activity [2]: fourfold | in vitro interaction [2]: synergistic; also recorded: additive | Functional observational battery parameters [3]: No change | MIC (Enterococci spp.): 8 to 32 µg/mL (≈ 24.2 to 96.8 µM) | Salmonella–Escherichia coli/microsome plate incorporation assay [4]: Negative | weight loss of infected mice (Mtb [5]; versus untreated infected mice): significantly reduced weight loss | efficacy in screening and chronic model of TB (Mtb [5]; mice): efficacious | bactericidal or bacteriostatic ([6]; H. pylori): bactericidal | time–kill assays versus first-line drugs ([6]; H. pylori): better than amoxicillin and metronidazole | MIC range ([6]; all H. pylori clinical isolates, manuscript in preparation): 2.5 to 15 µg/mL | incorporation into trehalose monomyclate (TMM) (Mtb [7]): increased | incorporation of mycolic acids into the cell wall (Mtb [7]; trehalose dimycolate and arabinogalactan-bound mycolates): decreased | safety and tolerability [8]: safe and well-tolerated | MIC [9]: ≤ 0.2 µg/mL | Minute volume [10]: No change | Respiratory rate [10]: No change | Tidal volume [10]: No change | toxicities and adverse events ([11]; 40 mg/kg/day, three animal species, except emesis in dogs): no cardiovascular, hepatic, hematologic, neurological or ocular toxicities | NOAEL ([11]; dog, rat, nonhuman primate, in vivo): 30 to 40 mg/kg/day | phospholipidosis ([11]; in vivo): did cause phospholipidosis | Blood pressure ([12]; at 75 and 140 mg/m^2): No change | Body weights [12, 33]: No change | Clinical observations [12, 33]: No deaths | Clinical pathology: hematology or clinical chemistry [12, 33]: No change | ECG waveforms (rhythms and morphology) [12, 33]: No change | Heart rate/ECG data [12, 33]: No change | MIC (Streptococcus pneumoniae): 2 to 4 µg/mL (≈ 6.05 to 12.1 µM) | Segment 1: effects on male and female gamete maturation, copulatory performance, fertilization, zygote development and embryo implantation [13]: No impact | Segment 2: effects on pregnant female and development of embryo and fetus from implantation [13]: No impact | activity against other Mycobacteria [14]: active | MIC (Haemophilus influenzae): 1 to 32 µg/mL (≈ 3.03 to 96.8 µM) | MIC (Cryptococcus neoformans): 0.25 to 4 µg/mL (≈ 0.756 to 12.1 µM) | MIC (Clostridium difficile): 8 to 16 µg/mL (≈ 24.2 to 48.4 µM) | Effect on acid-fastness of Mtb (Mtb [15]): No effect | MIC (Mtb [16]; Mycobacterium tuberculosis): 0.78 µg/mL (≈ 2.36 µM) | MIC range (Mtb [16]; overall range on Mtb): 0.2 to 0.78 µg/mL | Mouse lymphoma mutation assay (Mouse lymphoma): Negative | bioavailability of SQ109 [17]: 21.4% | efficacious dose for treatment of TB (Mtb [18]): 10 mg/kg/day | exposure of mice to SQ109 ([19]; in the presence of CS and KAN): slightly decreased | pharmacology profile on coadministration ([19]; mice, SQ109 and MXF coadministered): not affected | food effect on half-life [20, 34]: increased | food effect on maximum serum concentration [20, 34]: decreased | mean maximum concentration ([20]; 10-mg oral dose): 0.729 ng/mL | mean maximum concentration ([20]; 300-mg oral dose): 20.2 ng/mL | serious adverse events ([20]; Phase Ia, single oral doses 5-300 mg): no serious AEs | half-life ([20]; human, serum, oral, 300 mg): 61.1 h | Activity on Mtb gene clusters GC82 and GC120 [21]: Downregulates | transcription of the iniBAC operon [21]: induces | MIC (Candida spp.): 1 to 8 µg/mL (≈ 3.03 to 24.2 µM) | tolerability ([22]; 75 mg daily for 14 days or 150 mg daily for 5 days then days 9 and 14): well tolerated | serious adverse events ([22]; Phase Ib): no SAEs | MBC (Neisseria gonorrhoeae): 0.038 µg/mL (≈ 0.115 µM) | MIC (Neisseria gonorrhoeae): 0.038 µg/mL (≈ 0.115 µM) | activation of CYP450 3A4 (CYP3A4): not activated | metabolism by CYP450 3A4 (CYP3A4): nor is it metabolized | concentration in lung and spleen compared with plasma [23]: at least 45 fold | Micronucleus assay in rats [24]: Negative | MIC (Aspergillus fumigatus): 8 µg/mL (≈ 24.2 µM) | interaction in macrophage intracellular killing assay (Mtb inside macrophages [25]): synergy | Functional observational battery parameters [26]: No change | time to kill intracellular Mtb in infected macrophage assay (Mtb inside macrophages [27]; SQ109 with sutezolid): improved synergistically | reduction of intracellular Mtb (Mtb inside macrophages [27]; at its MIC): 99% | killing of Mtb inside macrophages relative to INH and EMB (Mtb inside macrophages [27]): equivalent to INH and superior to EMB | MIC ([28]; Mycobacterium tuberculosis, H37RV, read-out: MIC Alone): 0.5 µg/mL | in vitro interaction ([28]; SQ109 with AMK, Unpublished Data): synergy | in vitro interaction ([28]; SQ109 with CFZ, Reddy V, Unpublished Data): synergy | in vitro interaction ([28]; SQ109 with CM, Unpublished Data): synergy | in vitro interaction ([28]; SQ109 with CS, Unpublished Data): additive | in vitro interaction ([28]; SQ109 with ETA, Unpublished Data): additive | in vitro interaction ([28]; SQ109 with KAN, Unpublished Data): additive | in vitro interaction ([28]; SQ109 with MXF, Unpublished Data): synergy | in vitro interaction ([28]; SQ109 with all the rifamycins, including rifapentine and rifabutin): profound synergy | in vitro interaction ([28]; SQ109 with para-aminosalicylic acid, Unpublished Data): additive | MIC Combination ([28]; checkerboard SQ109 + CFZ, Mtb H37Rv): 0.125 µg/mL | tissue distribution [29]: highest concentrations of SQ109 in liver | human CYP450 enzymes producing the four major metabolites (CYP450 2D6 and 2C19): CYP450 2D6 and 2C19 | activity in model of chronic TB [30]: better activity than EMB at 100 mg/kg | in vivo drug–drug interactions or PK changes [31]: no in vivo adverse drug–drug interactions or PK changes | MIC [32]: 4 to 16 µg/mL (≈ 12.1 to 48.4 µM)
